In US8519188B2, “Compounds which can be used for the treatment of cancers” (Marc-Henry Pitty, priority 2008, dated 2013):

Experiments:
[1] = test system: MCF-7/adr adriamycin-resistant breast cancer cell line; assay: Cell proliferation (CellTiter 96 AQueous MTS/PMS), MCF-7/adr; type: cell-based; settings: Homo sapiens, NCI/ADR-RES; MCF-7/adr; 72 hours of incubation; concentration that induces the death of 50% of the cells; read-out: CI50 for various cell lines (nM) MCF-7/adr
Protocol: (§1) The effects of the compounds of the invention on the proliferation of cancer cells were studied on various human cancer cell lines of various tissue origins (MCF-7: breast cancer, MCF-7/adr adriamycin-resistant breast cancer, ARH-77: myeloma, ARH-77/Dox: doxorubicin (other name for adriamycin)-resistant myeloma, HL-60: acute promyelocytic leukaemia, HL-60/R10: doxorubicin-resistant acute promyelocytic leukaemia). The cancer cells used for this study were incubated at 37° C. in the presence of one of the compounds of the invention added to the culture medium at various concentrations.
(§2) The cancer cell lines originate from the ATCC (American Type Culture Collection) in the case of MCF-7, ARH-77 and HL-60, from Pharmacell (Paris, France) for HL-60/R10, from Oncodesign (Dijon, France) for ARH-77/Dox and from the Pitié Salpetrière Hospital for MCF-7/adr. They were cultivated in a RPMI 1640 medium containing 2 mM L-glutamine and supplemented with 10% foetal calf serum. All the cell lines were maintained in culture at 37° C. in a moist atmosphere containing 5% CO2. Cell proliferation was evaluated using the “CellTiter 96® AQueous” reagent (Promega, Wis., USA) while adhering to the manufacturer's instructions. The cells were seeded in 96-well culture plates in a proportion of from 5,000 to 10,000 cells per well in 200 μl of culture medium. After 24 hours of preincubation at 37° C., the compounds of the invention dissolved in dimethyl sulphoxide (DMSO) were added individually to each of the wells in a proportion of 2 μl per well. After 72 hours of incubation at 37° C. in a moist atmosphere containing 5% CO2, 40 μL of a MTS/PMS ([3-(4,5-dimethylthiazol-2-yl)-5-(3-carboxymethoxyphenyl)-2-(4-sulphophenyl)-2H-tetrazolium phenazine methosulphate) solution were added to each well.

[2] = test system: MCF-7 breast cancer cell line; assay: Cell proliferation (CellTiter 96 AQueous MTS/PMS), MCF-7; type: cell-based; settings: Homo sapiens, MCF7; MCF-7; 72 hours of incubation; concentration that induces the death of 50% of the cells; read-out: CI50 for various cell lines (nM) MCF-7
Protocol: as §1, §2

| Compound | IC50 [1] | IC50 [2] |
| --- | --- | --- |
| C#CC(=O)N(C(C(=O)NCc1ccccc1)c1cccs1)[C@@H](C)c1ccccc1 (stereo partly drawn) [Compound 8, Propynoic Acid (benzylcarbamoylthiophen-2-yl-methyl)-((S)-1-phenylethyl)amide] | 30 nM | – |
| C#CC(=O)N(C(C(=O)NCc1ccccc1)c1cccs1)[C@H](C)c1ccccc1 (stereo partly drawn) [Compound 9, Propynoic Acid (benzylcarbamoylthiophen-2-yl-methyl)-((R)-1-phenylethyl)amide] | 30 nM | – |
| C#CC(=O)N(CC(C)C)C(C(=O)NC1CCCCC1)c1cccs1 (centres unmarked) [Compound 12, Propynoic Acid (cyclohexylcarbamoylthiophen-2-yl-methyl)isobutylamide] | 30 nM | – |
| C#CC(=O)N(CC(C)C)C(C(=O)NCc1ccccc1)c1cccs1 (centres unmarked) [Compound 16, Propynoic Acid (benzylcarbamoylthiophen-2-yl-methyl)isobutylamide] | 1 nM | – |
| C#CC(=O)N(CC1CC1)C(C(=O)NCc1ccccc1)c1cccs1 (centres unmarked) [Compound 18, Propynoic Acid (benzylcarbamoylthiophen-2-yl-methyl)cyclopropylmethylamide] | 30 nM | – |
| C#CC(=O)N(c1cccc(C(F)(F)F)c1)C(C(=O)NC1CCCCC1)c1ccc(C)s1 (centres unmarked) [Compound 19, Propynoic Acid [cyclohexylcarbamoyl-(5-methylthiophen-2-yl)-methyl]-(3-trifluoromethylphenyl)amide] | 1.4 nM | 340 nM |
| C#CC(=O)N(c1cccc([N+](=O)[O-])c1)C(C(=O)NC1CCCCC1)c1cccs1 (centres unmarked) [Compound 27, Propynoic Acid (cyclohexylcarbamoylthiophen-2-yl-methyl)-(3-nitrophenyl)amide] | 0.8 nM | 110 nM |
| C#CC(=O)N(c1ccc(-c2csnn2)cc1)C(C(=O)NC1CCCCC1)c1cccs1 (centres unmarked) [Compound 28, Propynoic Acid (cyclohexylcarbamoylthiophen-2-yl-methyl)-(4-[1,2,3]thiadiazol-4-yl-phenyl)amide] | 2.2 nM | 70 nM |
| C#CC(=O)N(c1ccc(C(O)(C(F)(F)F)C(F)(F)F)cc1)C(C(=O)NC1CCCCC1)c1cccs1 (centres unmarked) [Compound 29, Propynoic Acid (cyclohexylcarbamoylthiophen-2-yl-methyl)-[4-(2,2,2-trifluoro-1-hydroxy-1-trifluoromethylethyl)phenyl]amide] | 18 nM | 877 nM |
| C#CC(=O)N(c1ccc(N(CC)CC)cc1)C(C(=O)NC1CCCCC1)c1cccs1 (centres unmarked) [Compound 32, Propynoic Acid (cyclohexylcarbamoylthiophen-2-yl-methyl)-(4-diethylaminophenyl)amide] | 2.9 nM | 1260 nM |
| C#CC(=O)N(c1ccccc1Cl)C(C(=O)NC1CCCCC1)c1cccs1 (centres unmarked) [Compound 33, Propynoic Acid (2-chlorophenyl)(cyclohexylcarbamoylthiophen-2-yl-methyl)amide] | 2.7 nM | 736 nM |
| C#CC(=O)N(c1cccc(-c2ccnc(C)n2)c1)C(C(=O)NC1CCCCC1)c1cccs1 (centres unmarked) [Compound 38, Propynoic Acid (cyclohexylcarbamoylthiophen-2-yl-methyl)-[3-(2-methylpyrimidin-4-yl)-phenyl]amide] | 1.9 nM | 272 nM |
| C#CC(=O)N(c1ccc(Cl)cc1)C(C(=O)NC1CCCCC1)c1cccs1 (centres unmarked) [Compound 41, Propynoic Acid (4-chlorophenyl)(cyclohexylcarbamoylthiophen-2-yl-methyl)amide] | 3.2 nM | 158 nM |
| C#CC(=O)N(c1ccc(N2CCOCC2)cc1)C(C(=O)NC1CCCCC1)c1cccs1 (centres unmarked) [Compound 48, Propynoic Acid (cyclohexylcarbamoylthiophen-2-yl-methyl)-(4-morpholin-4-yl-phenyl)amide] | 1 nM | – |
| C#CC(=O)N(c1ccc2[nH]ncc2c1)C(C(=O)NC1CCCCC1)c1cccs1 (centres unmarked) [Compound 49, Propynoic Acid (cyclohexylcarbamoylthiophen-2-yl-methyl)-(1H-indazol-5-yl)-amide] | 1 nM | 220 nM |
| C#CC(=O)N(c1ccc(F)cc1F)C(C(=O)NC1CCCCC1)c1cccs1 (centres unmarked) [Compound 50, Propynoic Acid (cyclohexylcarbamoylthiophen-2-yl-methyl)-(2,4-difluorophenyl)amide] | 2 nM | 282 nM |
| C#CC(=O)N(c1ccc(C(C)(C)C)cc1)C(C(=O)NC1CCCCC1)c1cccs1 (centres unmarked) [Compound 52, Propynoic Acid (4-tert-butylphenyl)(cyclohexylcarbamoylthiophen-2-yl-methyl)amide] | 3.5 nM | 708 nM |

| Compound | IC50 [1] | IC50 [2] |
| --- | --- | --- |
| C#CC(=O)N(c1ccc(C#N)cc1)C(C(=O)NC1CCCCC1)c1cccs1 (centres unmarked) [Compound 53, Propynoic Acid (4-cyanophenyl)(cyclohexylcarbamoylthiophen-2-yl-methyl)amide] | 2.8 nM | 372 nM |
| C#CC(=O)N(c1ccccc1C#N)C(C(=O)NC1CCCCC1)c1cccs1 (centres unmarked) [Compound 54, Propynoic Acid (2-cyanophenyl)(cyclohexylcarbamoylthiophen-2-yl-methyl)amide] | 2.9 nM | 224 nM |
| C#CC(=O)N(c1ccc(Oc2ccccc2)cc1)C(C(=O)NC1CCCCC1)c1cccs1 (centres unmarked) [Compound 55, Propynoic Acid (cyclohexylcarbamoylthiophen-2-yl-methyl)-(4-phenoxyphenyl)amide] | 2.4 nM | 694 nM |
| C#CC(=O)N(c1cccc(C#C)c1)C(C(=O)NC1CCCCC1)c1cccs1 (centres unmarked) [Compound 56, Propynoic Acid (cyclohexylcarbamoylthiophen-2-yl-methyl)-(3-ethynylphenyl)amide] | 1.4 nM | 640 nM |
| C#CC(=O)N(c1ccc(C(C)C)cc1)C(C(=O)NC1CCCCC1)c1cccs1 (centres unmarked) [Compound 57, Propynoic Acid (cyclohexylcarbamoylthiophen-2-yl-methyl)-(4-isopropylphenyl)amide] | 8.1 nM | 599 nM |
| C#CC(=O)N(c1cccc(-c2ccccc2)c1)C(C(=O)NC1CCCCC1)c1cccs1 (centres unmarked) [Compound 58, Propynoic acid biphenyl-3-yl-(cyclohexylcarbamoylthiophen-2-yl-methyl)amide] | 2.4 nM | 580 nM |
| C#CC(=O)N(c1ccccc1C)C(C(=O)NC1CCCCC1)c1cccs1 (centres unmarked) [Compound 60, Propynoic Acid (cyclohexylcarbamoylthiophen-2-yl-methyl)-o-tolylamide] | 3.5 nM | 357 nM |
| C#CC(=O)N(c1cccc(C(F)(F)F)c1)C(C(=O)NC1CCCCC1)c1ccc2c(c1)OCO2 (centres unmarked) [Compound 63, Propynoic Acid (benzo[1,3]dioxol-5-yl-cyclohexylcarbamoylmethyl)-(3-trifluoromethylphenyl)amide] | 2 nM | 401 nM |
| C#CC(=O)N(c1cccc(C(F)(F)F)c1)C(C(=O)NC1CCCCC1)c1ccccc1 (centres unmarked) [Compound 66, Propynoic Acid (cyclohexylcarbamoyl phenylmethyl)-(3-trifluoromethylphenyl)amide] | 1 nM | – |
| C#CC(=O)N(c1cccc(C(F)(F)F)c1)C(C(=O)NC1CCCCC1)c1ccccc1F (centres unmarked) [Compound 72, Propynoic Acid [cyclo hexylcarbamoyl-(2-fluorophenyl)methyl]-(3-trifluoromethylphenyl)amide] | 3 nM | 619 nM |
| C#CC(=O)N(c1cccc(C(F)(F)F)c1)C(C(=O)NC1CCCCC1)c1ccc(F)cc1 (centres unmarked) [Compound 74, Propynoic Acid [cyclohexylcarbamoyl-(4-fluorophenyl)methyl]-(3-trifluoromethylphenyl)amide] | 2.9 nM | 506 nM |
| C#CC(=O)N(c1cccc(C(F)(F)F)c1)C(C(=O)NC1CCCCC1)c1ccc(N(C)C)cc1 (centres unmarked) [Compound 76, Propynoic Acid [cyclohexylcarbamoyl-(4-dimethylaminophenyl)methyl]-(3-trifluoromethylphenyl)amide] | 1.5 nM | – |
| C#CC(=O)N(c1cccc(C(F)(F)F)c1)C(C(=O)NC1CCCCC1)c1ccc(C#N)cc1 (centres unmarked) [Compound 81, Propynoic Acid [(4-cyanophenyl)cyclohexylcarbamoylmethyl]-(3-trifluoromethylphenyl)amide] | 1.6 nM | 269 nM |
| C#CC(=O)N(c1cccc(C(F)(F)F)c1)C(C(=O)NC1CCCCC1)c1cccc2c1OCO2 (centres unmarked) [Compound 84, Propynoic Acid (benzo[1,3]dioxol-4-yl-cyclohexylcarbamoylmethyl)-(3-trifluoromethyl-phenyl)amide] | 1.6 nM | 250 nM |
| C#CC(=O)N(c1cccc2ccccc12)C(C(=O)NC1CCCCC1)c1ccccc1 (centres unmarked) [Compound 176] | 1.9 nM | – |
| C#CC(=O)N(Cc1ccc2c(c1)OCO2)C(C(=O)NCc1ccccc1)c1ccccc1F (centres unmarked) [Compound 181] | 0.2 nM | – |
